Series [1] in a line: Acute toxicity (LD50, Behrens-Karber method). It is filed as in vivo, ICR mice. Conditions: ip, mortality during 30 days; for LD50 at 720 h: mouse, in vivo. The procedure: Test compounds, dissolved or suspended in 0.5% aqueous CMC, were each intraperitoneally administered to ICR mice in a dose of 0.1 ml per 10 g body weight. LD50 (mg/kg) value of each test compound was calculated from the mortality of mice during 30 days by the Behrens-Karber method.

A further series relates to Leukemia L1210. Nature of the series: Activity against Leukemia L1210, intraperitoneal, increase in life span of mice. The series is classed as in vivo, female mice (BDF1 family). The following applies: for O.D. (optimum dosage) / ILS30 / ED (maximum ILS) / ED30: ip once a day for 5 successive days; for O.D. (optimum dosage) / ED (maximum ILS): daily dosage giving maximum increase of life span; for ILS30 / ED30: daily dosage increasing average survival days by 30%; for Survivors after 60 days / Max. ILS % / Therapeutic ratio TR: ip; for Survivors after 60 days: 6-membered group; for Max. ILS %: 60-day observation, versus control; for Therapeutic ratio TR: O.D./ILS30; for ED (maximum ILS) / ED30: Mus musculus, L1210, ip; for ED (maximum ILS): read-out: O.D. (optimum dosage); for ED30: read-out: ILS30. The procedure:
Tests were conducted in accordance with the method for measuring antitumor activity of National Cancer Center Tokyo (A, Hoshi et al, Farumashia 9 464 (1973)). Test compounds were each intraperitoneally (referred to as ip) or orally (referred to as op) administered once a day for 5 successive days to a 6-membered group of femal mice (BDF1 family, each weighing 20 to 23 g) 24 hours after 1×10^5 cells of Leukemia L1210 have been implantated into the abdominal cavities of the mice, and the effect was evaluated by comparing the survival days of treated groups with those of an untreated group of mice (control group) in 60-day observation. An increase percentage of life span (ILS%) was calculated from said average survival days compared with those of the control group. Further, therapeutic ratio (O.D./ILD30, referred to as T.R.) of each tested compound was calculated from the daily dosage of the compound necessary to increase said average survival days by 30% as compared with the control group (this dosage is referred to as ILS 30) and the daily dosage giving a maximum increase of life span to mice implantated with L1210 cells, namely an optimum dosage (referred to as O.D.). The results of five successive days intraperitoneal administrations of test compounds were shown in Tables I to III, and those of five successive oral administrations in Table IV.

One may read the LD50 as the dose expected to kill half of the subjects tested.

In turn, “3-(2-methoxyethyl)-3-(1-methoxyethyl α-D-glucopyranose-3-yl)-1-(2-chloroethyl)-1-nitrosourea [Compound 80]” yielded an LD50 in series [1] of 640 mg/kg. In addition, in the series with Leukemia L1210, the “O.D. (optimum dosage)” value was 200 mg/kg, the ILS30 is given as 4.17 mg/kg, the “Survivors after 60 days” value was 5/6 and the “Max. ILS %” value is more than 625%. Moreover, the “Therapeutic ratio TR” value with Leukemia L1210 is 48.0.
In turn, `CCCO[C@H]1O[C@H](CN(CC(C)C)C(=O)N(CCCl)N=O)[C@@H](O)[C@H](O)[C@H]1O` [Compound 1, 3-isobutyl-3-(n-propyl α-D-glucopyranose-6-yl)-1-(2-chloroethyl)-1-nitrosourea] showed an LD50 at 720 h in series [1] of 340 mg/kg. In the series with Leukemia L1210, the ED (maximum ILS) is 120 mg/kg, the ED30 was determined as 2.96 mg/kg, the “Survivors after 60 days” value is reported as 6/6 and the “Max. ILS %” value is given as more than 700%. Also, the “Therapeutic ratio TR” value with Leukemia L1210 was 40.5.
In the case of `CO[C@H]1O[C@H](CO)[C@@H](O)[C@H](O)[C@H]1NC(=O)N(CCCl)N=O` [Compound 2MCαG, 3-(methyl α-D-glucopyranose-2-yl)-1-(2-chloroethyl)-1-nitrosourea, reference compound], in series [1], the LD50 at 720 h amounted to 46 mg/kg. For the same compound, in the series on Leukemia L1210, the ED (maximum ILS) stood at 15.2 mg/kg, the ED30 was 1.15 mg/kg, the “Survivors after 60 days” value is 5/6 and the “Max. ILS %” value is on record as more than 625%. Moreover, the “Therapeutic ratio TR” value in the series on Leukemia L1210 is given as 13.2.
In turn, `CCCCO[C@H]1O[C@H](CN(CCC)C(=O)N(CCCl)N=O)[C@@H](O)[C@H](O)[C@H]1O` [Compound 5, 3-n-propyl-3-(n-butyl α-D-glucopyranose-6-yl)-1-(2-chloroethyl)-1-nitrosourea] displayed a 50% lethal dose (LD50) at 720 h in series [1] of 325 mg/kg. Moreover, in the series on Leukemia L1210, the ED (maximum ILS) was determined as 100 mg/kg, the ED30 came to 2.6 mg/kg, the “Survivors after 60 days” value is 6/6 and the “Max. ILS %” value is listed as more than 700%. The “Therapeutic ratio TR” value in the series with Leukemia L1210 turned out to be 38.5.
In the case of `CCCCO[C@H]1O[C@H](CN(CCCC)C(=O)N(CCCl)N=O)[C@@H](O)[C@H](O)[C@H]1O` [Compound 6, 3-n-butyl-3-(n-butyl α-D-glucopyranose-6-yl)-1-(2-chloroethyl)-1-nitrosourea], in series [1], the LD50 at 720 h was determined as 390 mg/kg. In the series on Leukemia L1210, the ED (maximum ILS) is 120 mg/kg, the ED30 was 3 mg/kg, the “Survivors after 60 days” value is 6/6 and the “Max. ILS %” value is more than 700%. Also, the “Therapeutic ratio TR” value in the series on Leukemia L1210 turned out to be 40.0.
Regarding `CCCCN(C[C@H]1O[C@H](OC)[C@H](O)[C@@H](O)[C@@H]1O)C(=O)N(CCCl)N=O` [Compound 6MCαGB, 3-n-butyl-3-(methyl α-D-glucopyranose-6-yl)-1-(2-chloroethyl)-1-nitrosourea, reference compound], in series [1], the median lethal dose (LD50) at 720 h was 92 mg/kg. In the series on Leukemia L1210, the ED (maximum ILS) was determined as 30 mg/kg, the ED30 was 1.34 mg/kg, the “Survivors after 60 days” value is on record as 4/6 and the “Max. ILS %” value is listed as more than 440%. Moreover, in the series on Leukemia L1210, the “Therapeutic ratio TR” value was 22.4.
As to `CO[C@H]1O[C@H](CN(CCO)C(=O)N(CCCl)N=O)[C@@H](O)[C@H](O)[C@H]1O` [Compound 6MCαGHE, 3-(2-hydroxyethyl)-3-(methyl α-D-glucopyranose-6-yl)-1-(2-chloroethyl)-1-nitrosourea, reference compound], the LD50 at 720 h in series [1] amounted to 90 mg/kg. Also, in the series with Leukemia L1210, the ED (maximum ILS) amounted to 30 mg/kg, the ED30 worked out at 1.4 mg/kg, the “Survivors after 60 days” value is 4/6 and the “Max. ILS %” value was more than 440%. The “Therapeutic ratio TR” value in the series on Leukemia L1210 was 21.4.
In series [1] (43200 min), `CO[C@H]1O[C@H](CNC(=O)N(CCCl)N=O)[C@@H](O)[C@H](O)[C@H]1O` [Compound 6MCαGM, 3-(methyl α-D-glucopyranose-6-yl)-1-(2-chloroethyl)-1-nitrosourea, reference compound] had an LD50 of 88 mg/kg. In addition, in the series with Leukemia L1210, the “O.D. (optimum dosage)” value was determined as 29.1 mg/kg, the ILS30 turned out to be 1.45 mg/kg, the “Survivors after 60 days” value is 4/6 and the “Max. ILS %” value is more than 450%. Further, in the series with Leukemia L1210, the “Therapeutic ratio TR” value is reported as 20.1.
Regarding `CCCCCCN(C[C@H]1O[C@H](OCCCC)[C@H](O)[C@@H](O)[C@@H]1O)C(=O)N(CCCl)N=O` [Compound 7, 3-n-hexyl-3-(n-butyl α-D-glucopyranose-6-yl)-1-(2-chloroethyl)-1-nitrosourea], the 50% lethal dose (LD50) at 720 h in series [1] is 410 mg/kg. In addition, in the series on Leukemia L1210, the ED (maximum ILS) was found to be 140 mg/kg, the ED30 is 5.2 mg/kg, the “Survivors after 60 days” value was 5/6 and the “Max. ILS %” value is more than 620%. Also, the “Therapeutic ratio TR” value in the series on Leukemia L1210 is listed as 26.9.
Take `CCCCCCCCCCN(C[C@H]1O[C@H](OCCCC)[C@H](O)[C@@H](O)[C@@H]1O)C(=O)N(CCCl)N=O` [Compound 8, 3-n-decyl-3-(n-butyl α-D-glucopyranose-6-yl)-1-(2-chloroethyl)-1-nitrosourea]: the LD50 at 720 h in series [1] was 315 mg/kg. In the series on Leukemia L1210, the ED (maximum ILS) was determined as 100 mg/kg, the ED30 was determined as 4.46 mg/kg, the “Survivors after 60 days” value is 3/6 and the “Max. ILS %” value is listed as more than 450%. Further, the “Therapeutic ratio TR” value in the series with Leukemia L1210 turned out to be 22.4.
Consider `CCCCO[C@H]1O[C@H](CN(CC(C)C)C(=O)N(CCCl)N=O)[C@@H](O)[C@H](O)[C@H]1O` [Compound 9, 3-isobutyl-3-(n-butyl α-D-glucopyranose-6-yl)-1-(2-chloroethyl)-1-nitrosourea], for which the LD50 at 720 h in series [1] was found to be 440 mg/kg. In the series with Leukemia L1210, the ED (maximum ILS) amounted to 150 mg/kg, the ED30 was 3.33 mg/kg, the “Survivors after 60 days” value is 6/6 and the “Max. ILS %” value is given as more than 700%. Besides, the “Therapeutic ratio TR” value in the series with Leukemia L1210 amounted to 45.0.
Regarding `CC(C)CO[C@H]1O[C@H](CN(C(=O)N(CCCl)N=O)C(C)C)[C@@H](O)[C@H](O)[C@H]1O` [Compound 13, 3-isopropyl-3-(isobutyl α-D-glucopyranose-6-yl)-1-(2-chloroethyl)-1-nitrosourea], the LD50 at 720 h in series [1] is 375 mg/kg. In the series on Leukemia L1210, the ED (maximum ILS) was determined as 120 mg/kg, the ED30 came out at 2.77 mg/kg, the “Survivors after 60 days” value was 6/6 and the “Max. ILS %” value is more than 700%. Also, the “Therapeutic ratio TR” value in the series on Leukemia L1210 came out at 43.3.
In turn, `CC(C)CO[C@H]1O[C@H](CN(CC(C)C)C(=O)N(CCCl)N=O)[C@@H](O)[C@H](O)[C@H]1O` [Compound 14, 3-isobutyl-3-(isobutyl α-D-glucopyranose-6-yl)-1-(2-chloroethyl)-1-nitrosourea] registered an LD50 at 720 h in series [1] of 510 mg/kg. In the series with Leukemia L1210, the ED (maximum ILS) turned out to be 170 mg/kg, the ED30 was determined as 3.32 mg/kg, the “Survivors after 60 days” value is 6/6 and the “Max. ILS %” value is more than 700%. The “Therapeutic ratio TR” value in the series with Leukemia L1210 was 51.2.
In the case of `CCC(C)O[C@H]1O[C@H](CN(CC(C)C)C(=O)N(CCCl)N=O)[C@@H](O)[C@H](O)[C@H]1O` (stereo partly drawn) [Compound 17, 3-isobutyl-3-(sec-butyl α-D-glucopyranose-6-yl)-1-(2-chloroethyl)-1-nitrosourea], the 50% lethal dose (LD50) at 720 h in series [1] was determined as 510 mg/kg. In the series with Leukemia L1210, the ED (maximum ILS) came to 170 mg/kg, the ED30 came to 3.55 mg/kg, the “Survivors after 60 days” value is given as 6/6 and the “Max. ILS %” value is reported as more than 700%. For the same compound, the “Therapeutic ratio TR” value in the series on Leukemia L1210 is 47.9.

For the origin of these results see patent US4593090A, “Novel nitrosourea compounds, method for preparing same, and pharmaceutical composition containing same” (Gogo Kimura, priority 1981, dated 1986).
